Patent publication US7556828B2, “Pharmaceutical composition for treatment of BPH and preparation thereof” (priority 2003, dated 2009)
Marks after values point to notes of the source that are not given here.

Key:
[1] = test system: prostate hyperplasia caused by testosterone propionate; test: Prostate hyperplasia caused by testosterone propionate in rats, comparison of anti-prostate hyperplasia medicaments (Experimental Example 1); type: in vivo, Wistar rats; settings: for Prostate Gland Factors, Sum of three lobes (anterior, head and posterior lobes) / Inhibition rate % (Anterior lobe) / Inhibition rate % (Sum of three lobes): 30 days; for Inhibition rate % (Anterior lobe) / Inhibition rate % (Sum of three lobes): vs contrast group; for Prostate Gland Factors, Anterior lobe: once a day for 30 days, castrated rats + testosterone propionate 5 mg/Kg
Method: The effect of anti-prostate hyperplasia medicaments and the composition of the present invention in rats on prostate hyperplasia caused by testosterone propionate was evaluated as discussed below.
• 1. PROSCAR (5-α-reductase inhibitor): tablets, produced by Merck & Co., Inc., (UK) Co., prepared as 0.5 mg/ml medicament. • 2. Saw Palmetto tablets, produced by Zhejiang Conba Pharmaceutical Co. Ltd., prepared with distilled water into […]. • 3. Longbishu Capsules: produced by SHIJIAZHUAN KEDI Pharmaceutical Co., Ltd., prepared with distilled water into 0.18 g/ml medical liquid. • 4. The final extract of Example 9, prepared into […] medical liquid. • 5. Estradiol Benzoate injection • 6. Testosterone propionate injection Test Method and Results
Six 130 g-150 g male Wistar rats were anaesthetized with ether. The testes of each rat were removed under axenic conditions, and the test rats were bred for a week after operation. The rats were divided at random into 6 groups, with 6 rats in each group. All groups of animals were hyped each day with 5 mg/Kg testosterone propionate dissolved in prepared peanut oil. The control (contrast) groups were administered a physiological salt solution. The test groups were administered a treatment of 5 mg/Kg PROSCAR, 5 g/Kg Saw Palmetto, 1.8 g/Kg longbishu, and 6 g/Kg of the final extract obtained in Example 9 The treatment took the form of a1 ml/100 g medicament; for hypodermic injections of 50 μg/Kg estradiol benzoate, the volume was […], administered once a day for 30 days. 24 hours after the final treatment, all the rats were killed. The whole prostate glands were anatomized and placed in formalin. Extraneous fat was cut away from the prostate glands and the liquid on the surface was dried with filter papers. The prostate glands were then weighed with a tissue balance to calculate the weight.

[2] = test system: testosterone propionate-induced prostate hyperplasia; test: Testosterone propionate-induced prostate hyperplasia in rats (Experimental Example 5); type: in vivo, Wistar rats
Method: Impact on Testosterone Propionate-Induced Prostate Hyperplasia in Rats
The same experimental materials and animals as in Experimental Example 2 were used. However, fifty (50) 130-150 g male Wistar rats were used. Under ether anesthesia and in sterilized surroundings, both testes of each rat were removed. The rats were then bred for a week after the operation. Next, the rats were randomly divided into 5 groups of 10 rats each. Each group of animals were hyped with 5 mg/kg testosterone propionate dissolved in prepared oil once a day. During the same time period, each group was also given one of the treatments: the control (contrast) group was administered a physiological saline solution; three test groups were administered a dose (1.5, 3 and 6 g/kg) of the extract from Example 9 in a preparation of 1 m/100 g. The positive control (contrast) group was hyped with 50 μg/kg estradiol benzoate in a volume of 0.05 ml/100 g, once a day for 30 days. After the last treatment, the rats were killed and their whole prostate glands were anatomized. The prostate glands were placed in formalin. All the fat was cut away from the prostate glands after they were removed from the formalin. The remaining formalin on the prostate gland surface was dried with filter papers. The prostate glands were then placed in 70% ethanol and fixed for 24 hours. Next, the prostate glands were removed from the ethanol and placed on filter papers. The anterior, head and posterior lobes of the prostate glands were separated and weighed on a weighing scale to test twisting force. The transverse diameter, diameter and height of the anterior lobes of the prostate glands were measured with a two-foot vernier. The volume of the anterior lobe of a prostate gland was obtained by multiplying the values of the three measurements. Finally, the anterior lobes were examined with tectology, and the diameter of the prostate gland cavity and the height of the glandular epithelium cells were measured. Non-pairing t-examinations among the groups were conducted for all indexes. The values of the treatment groups were compared to the control (contrast) groups in order to determine the average difference.

[3] = test system: tampon granuloma; test: Tampon granuloma of rats; type: in vivo; settings: 20 mg/kg once a day for 7 days
Method: Impact on Tampon Granuloma of Rats The same experimental materials and animals as in Experimental Example 2 were used. However, sixty (60) 150-180 g male rats were used. Under ether anesthesia and normal disinfection, two±1 mg sterilized tampons were embedded under the inguinal skins on either side of the bodies. […] The treatments were administered into the rats' stomachs once a day for 7 days. On the eighth day, the rats were killed via a disjointed cervical vertebra method. The tampons were removed and placed in a 60° C. oven for 12 hours and then weighed.

[4] = test system: otic swelling caused by mixed inflammatory solution of croton oil; test: Otic swelling caused by mixed inflammatory solution of croton oil; type: in vivo, mice; settings: 20 mg/kg once a day for 5 days
Method: 1. Impact on Otic Swelling Caused by Mixed Inflammatory Solution of Croton Oil. […] The treatments were administered to the mice once a day for 5 days. […] Four hours after inflammation, the mice were killed with a disjointed cervical vertebra method. The two ears were cut along the auricle baseline. Equal parts of the two ears (by area) were cut off and weighed on weighing scales to test twisting force. The degree of swelling/inflammation was obtained by subtracting the weight of the right ear from the weight of the left ear. The degrees of swelling between the control (contrast) groups and the test groups were analyzed statistically and the swelling inhibition rate was obtained.

[5] = dose 50 g/Kg (so in the source), hypodermic
[6] = 50 μg/kg once a day for 30 days
[7] = estradiol benzoate 50 μg/kg, 30 days, vs control

## CC(C)(C)NC(=O)[C@H]1CC[C@H]2[C@@H]3CC[C@H]4NC(=O)C=C[C@]4(C)[C@H]3CC[C@]12C [PROSCAR]
[1]; dose 5 mg/Kg
  Prostate Gland Factors, Sum of three lobes (anterior, head and posterior lobes): 453.4 ± 59.1 mg/100 g
  Inhibition rate % (Anterior lobe): 42.3** %
  Inhibition rate % (Sum of three lobes): 37.1** %
  Prostate Gland Factors, Anterior lobe: 164.2 ± 31.4 mg/100 g

## C[C@]12CC[C@@H]3c4ccc(OC(=O)c5ccccc5)cc4CC[C@H]3[C@@H]1CC[C@@H]2O [estradiol benzoate, Estradiol Benzoate]
[1]; [5]
  Prostate Gland Factors, Sum of three lobes (anterior, head and posterior lobes): 585.3 ± 80.5 mg/100 g
  Inhibition rate % (Anterior lobe): 36.7** %
  Inhibition rate % (Sum of three lobes): 18.8** %
  Prostate Gland Factors, Anterior lobe: 180.1 ± 55.8 mg/100 g
[2]; [6]
  Volume of anterior lobe (cm3): 0.42 ± 0.12 cm3
  rat prostate factors, Anterior lobe: 127.2 ± 23.4 mg/100 g
  rat prostate factors, Head lobe: 51.2 ± 10.7 mg/100 g
[2]; 30 days after treatment, microscopic examination
  hyperplasia of the diameter of the glandular cavity of prostate anterior and head lobes (histology): inhibit hyperplasia
[2]; [7]
  inhibition rate for head lobes (weight): 30.2%
  inhibition rate for posterior lobe (weight): 12.5%
  inhibition rate for prostate anterior lobe (weight): 35.3%
  inhibition rate, volume of prostate anterior lobe: 45.5%

## CC(=O)OCC(=O)[C@@]1(O)CC[C@H]2[C@@H]3CCC4=CC(=O)CC[C@]4(C)[C@H]3[C@@H](O)C[C@@]21C [Hydrocortisone, Hydrocortisone acetate]
[3]
  Inhibition rate %: 42.43%
  Weight of tampon granuloma (mg x ± SD): 26.45 ± 2.61 mg
[4]
  Inhabitation rate %: 46.77%
[4]; 4 hours after croton oil
  Swelling degree (mg) (x ± SD): 9.50 ± 2.93 mg
